Results on six molecules are retold here after patent US11654196B2, “Dosing regimens for echinocandin class compounds” (priority 2012, dated 2023).

Series [1] can be described thus: Pharmacokinetics following intravenous administration in beagle dogs. The class given is in vivo. The following applies: 1.4 mg/kg IV slow bolus. The method, then: Echinocandin class compounds were administered to beagle dogs weighing approximately 6-10 kg. Each compound was dosed at 1.4 mg/kg in aqueous saline (with or without 0.5% Tween) over course of 1-10 minutes. […] The dogs were fasted at least 12 hours prior to each dosing and offered food after the 4-hour blood sample was taken; water was withheld for 1 hour prior to and 4 hours following each dosing event. The dose for each animal was based on its most recent body weight. The test article was injected intravenously via a catheter placed in the cephalic vein as a slow bolus.
Blood was collected via the jugular vein. All blood samples (1 mL each) were collected into K3EDTA tubes. Following blood collection, the samples were immediately inverted several times and were held on wet ice pending centrifugation. The samples were centrifuged within 30 minutes of collection under refrigeration (˜5° C. for 10 minutes at 2000 g) to obtain plasma. The plasma was frozen immediately on dry ice after separation. The plasma samples were stored at approximately ˜70° C. until analysis.
Plasma (100 μL) was precipitated with 400 μL of 0.1% formic acid in acetonitrile containing the internal standard (100 ng/mL pneumocandin). The samples were then capped and vortexed for about 30 seconds followed by centrifugation at 14,000 rpm at room temperature for 10 minutes. Following centrifugation 200 μL of supernatant was transferred to plastic autosampler vials containing 200 μL of 0.1% formic acid in water and vortexed. Samples were then analyzed by LCMSMS.
All pharmacokinetic calculations were performed using WinNonlin version 4.1 (Pharsight Corp) by noncompartmental analysis.

Series [2] can be described thus: Pharmacokinetics (oral bioavailability) following oral administration in beagle dogs. The class given is in vivo. The arrangement: key to Improvement (ratio of % oral bioavailability to saline): NI = no improvement in oral bioavailability in comparison to saline. The following applies: for % BA in saline: oral about 7-10 mg/kg, formulation 11 (saline). The method, then:
Echinocandin class compounds were administered to beagle dogs weighing approximately 6-10 kg. Each animal received the appropriate prepared test article in a single oral capsule dose at a target dose level of about 7-10 mg/kg. Immediately after dosing, each animal was offered 20 mL-30 mL of water orally (Groups 1-4) or 30 mL of water orally to assist in swallowing the capsule.
Animals were treated and blood samples were drawn and analyzed as provided in Example 1.
The bioavailability of each oral dose formulation was estimated by comparison to intravenous plasma concentration data in dogs from Example 1. The results provided in Table 3 show the oral bioavailability for the echinocandin class compound in saline (formulation 11), and the improvement over saline with the use of a formulation of the invention.

For series [3] the following is noted: Mouse, literature values; cited from earlier work.
The conditions of series [4]: Rat, literature values; cited from earlier work.
For series [5] the following is noted: Rabbit, literature values; cited from earlier work.
For series [6] the following is noted: Man, literature values; cited from earlier work.

SMILES strings stand for the structures. Read-outs that look alike come from different tables or passages of the source. *1 amine or outer side, *2 acyl side, *3 side chain or, on linkers, in order; H or OH if unused. Where a SMILES comes first, the peptide text is derived from it. Bridges are numbered along the chain shown (N, C = ends). [ ]: non-standard residue; d: D form. The star is where a group is joined. hTyr(3S-OH,4S-OH,3'-OSO3H) = N[C@H](C(=O)O)[C@H](O)[C@@H](O)c1ccc(O)c(OS(=O)(=O)O)c1; Orn(4R-OH,5R-OH) = O=C([C@H](C[C@@H](O)[C@@H](O)N[*:3])N[*:1])[*:2]; Pro(3S-OH,4S-Me) = C[C@H]1CN[C@H](C(=O)O)[C@H]1O; X1 = CCCCCOc1ccc(-c2cc(-c3ccc(C(=O)*)cc3)no2)cc1; Gln(3R-OH) = NC(=O)C[C@@H](O)[C@H](N)C(=O)O; Hyp = O=C(O)[C@@H]1C[C@@H](O)CN1

Regarding `CCCCCOc1ccc(-c2ccc(-c3ccc(C(=O)NC4CC(O)C(NCCNCCO)NC(=O)C5C(O)C(C)CN5C(=O)C(C(C)O)NC(=O)C(C(O)C(O)c5ccc(O)cc5)NC(=O)C5CC(O)CN5C(=O)C(C(C)O)NC4=O)cc3)cc2)cc1` (centres unmarked) [Compound 39], in series [1], the AUC (commonly concentration integrated over time) stood at 50800 ng·h/mL; the Cmax (in general, the highest concentration seen after dosing) is listed as 3630 ng/mL; the Mean clearance came out at 0.377 mL/min/kg; the T1/2 was found to be 21.0 h. The “Volume of Distribution” value in series [1] was found to be 0.687 L/kg. The “% BA in saline” value in series [2] is recorded as 5.15%. For the same molecule, the “Improvement (ratio of % oral bioavailability to saline)” value in series [2] (oral, formulation 1) is “NI”. In addition, the “Improvement (ratio of % oral bioavailability to saline)” value in series [2] (oral, formulation 5) is recorded as “NI”.

For the molecule `CCCCCOc1ccc(-c2cc(-c3ccc(C(=O)N[C@H]4C[C@@H](O)[C@@H](O)NC(=O)[C@@H]5[C@@H](O)[C@@H](C)CN5C(=O)[C@H]([C@H](O)CC(N)=O)NC(=O)[C@H]([C@H](O)[C@@H](O)c5ccc(O)c(OS(=O)(=O)O)c5)NC(=O)[C@@H]5C[C@@H](O)CN5C(=O)[C@H]([C@@H](C)O)NC4=O)cc3)no2)cc1` [Micafungin, micafungin] (X1-[Orn(4R-OH,5R-OH)]T[Hyp][hTyr(3S-OH,4S-OH,3'-OSO3H)][Gln(3R-OH)][Pro(3S-OH,4S-Me)]; lactam 1-C), the Half-life is 7 to 13 h in series [3], 5 h in series [4], 3 h in series [5] and 10 to 17 h in series [6].

In series [1], `CCCCCOc1ccc(-c2ccc(-c3ccc(C(=O)NC4CC(O)C(OCCOCCN)NC(=O)C5C(O)C(C)CN5C(=O)C(C(C)O)NC(=O)C(C(O)C(O)c5ccc(O)cc5)NC(=O)C5CC(O)CN5C(=O)C(C(C)O)NC4=O)cc3)cc2)cc1` (centres unmarked) [Compound 26] came in with an AUC of 67167 ng·h/mL, a Cmax of 4080 ng/mL, a Mean clearance of 0.219 mL/min/kg and a T1/2 of 33.7 h. Moreover, the “Volume of Distribution” value in series [1] was found to be 0.627 L/kg. For the same molecule, the “Improvement (ratio of % oral bioavailability to saline)” value in series [2] (oral, formulation 5) is on record as “NI”. Also, in series [2] (oral, formulation 6), the “Improvement (ratio of % oral bioavailability to saline)” value was “NI”. In addition, the “Improvement (ratio of % oral bioavailability to saline)” value in series [2] (oral, formulation 7) was “NI”.

Turning to `CCCCCOc1ccc(-c2ccc(-c3ccc(C(=O)NC4CC(O)C(OCCOCCO)NC(=O)C5C(O)C(C)CN5C(=O)C(C(C)O)NC(=O)C(C(O)C(O)c5ccc(O)cc5)NC(=O)C5CC(O)CN5C(=O)C(C(C)O)NC4=O)cc3)cc2)cc1` (centres unmarked) [Compound 21], in series [1], the AUC is 113000 ng·h/mL, the Cmax turned out to be 6740 ng/mL, the Mean clearance was 0.145 mL/min/kg and the T1/2 was determined as 28.9 h. In addition, the “Volume of Distribution” value in series [1] turned out to be 0.361 L/kg. The “% BA in saline” value in series [2] came out at 4.70%. In series [2] (oral, formulation 1), the “% BA” value is given as “(6.42%)” and the “Improvement (ratio of % oral bioavailability to saline)” value was determined as 1.3. For the same molecule, in series [2] (oral, formulation 5), the “Improvement (ratio of % oral bioavailability to saline)” value is “NI”. Besides, the “Improvement (ratio of % oral bioavailability to saline)” value in series [2] (oral, formulation 7) is “NI”.

For `CCCCCOc1ccc(-c2ccc(-c3ccc(C(=O)NC4CC(O)C(NCC[N+](C)(C)C)NC(=O)C5C(O)C(C)CN5C(=O)C(C(C)O)NC(=O)C(C(O)C(O)c5ccc(O)cc5)NC(=O)C5CC(O)CN5C(=O)C(C(C)O)NC4=O)cc3)cc2)cc1` (centres unmarked) [Compound 37], in series [1], the AUC stood at 46200 ng·h/mL, the Cmax amounted to 2660 ng/mL, the Mean clearance was 0.365 mL/min/kg and the T1/2 is 27.6 h. Moreover, the “Volume of Distribution” value in series [1] is 0.874 L/kg. In series [2] (oral, formulation 1), the “Improvement (ratio of % oral bioavailability to saline)” value is given as “NI”. The “Improvement (ratio of % oral bioavailability to saline)” value in series [2] (oral, formulation 3) is recorded as “NI”. Besides, the “Improvement (ratio of % oral bioavailability to saline)” value in series [2] (oral, formulation 5) is “NI”. Further, the “Improvement (ratio of % oral bioavailability to saline)” value in series [2] (oral, formulation 7) is listed as “NI”.

In series [1], `CCCCCOc1ccc(-c2ccc(-c3ccc(C(=O)NC4CC(O)C(OCCOCCOC)NC(=O)C5C(O)C(C)CN5C(=O)C(C(C)O)NC(=O)C(C(O)C(O)c5ccc(O)cc5)NC(=O)C5CC(O)CN5C(=O)C(C(C)O)NC4=O)cc3)cc2)cc1` (centres unmarked) [Compound 19] displayed an AUC of 96100 ng·h/mL, a Cmax of 7700 ng/mL, a Mean clearance of 0.202 mL/min/kg and a T1/2 of 18.9 h. In addition, the “Volume of Distribution” value in series [1] worked out at 0.331 L/kg. The “% BA in saline” value in series [2] amounted to 5.74%. For the same molecule, in series [2] (oral, formulation 1), the “Improvement (ratio of % oral bioavailability to saline)” value was “NI”. Besides, the “Improvement (ratio of % oral bioavailability to saline)” value in series [2] (oral, formulation 5) is on record as “NI”.
